Measurements from patent publication US20040019027A1, “Method of treating cerebrotendinous xanthomatosis” (priority 2002, published 2004).

How the values were obtained:
mouse PXR = target: T1, mouse PXR (Mus musculus, UniProt O54915); assay: GAL-mouse PXR luciferase reporter gene assay in transfected CV-1 cells; type: cell-based; settings: for fold activation of GAL-mouse PXR / activation of GAL-mouse PXR (in words): 10 μM; for activation of GAL-mouse PXR (in words): CV-1 cells, FIG. 3(a), FIG. 8(a)
T1 sequence (O54915 104-431): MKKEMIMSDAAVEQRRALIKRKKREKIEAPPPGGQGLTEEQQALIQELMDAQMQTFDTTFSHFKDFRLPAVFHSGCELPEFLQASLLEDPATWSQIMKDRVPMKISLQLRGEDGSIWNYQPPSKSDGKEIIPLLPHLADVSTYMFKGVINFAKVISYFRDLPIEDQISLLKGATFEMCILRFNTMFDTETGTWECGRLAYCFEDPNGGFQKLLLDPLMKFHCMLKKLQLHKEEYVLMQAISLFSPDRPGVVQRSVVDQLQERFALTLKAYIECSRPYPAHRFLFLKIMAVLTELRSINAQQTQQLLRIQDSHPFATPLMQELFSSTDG
Protocol: (§1) CV-1 cells were transiently transfected with a GAL-mouse PXR expression vector, a GAL4 reporter construct, and a β-galactosidase vector as an internal control. Where noted, the bile acid transporter NTCP was added to the transfection to promote the transport of membrane-impermeable bile acids. Transfected cells were exposed to the indicated compounds (10 μM each), and fold activation was determined using luciferase and β-galactosidase enzyme activity assays. […] The transfected CV-1 cells were treated with multiple concentrations of each sterol. Error bars in this figure and subsequent figures represent the standard error of the mean (SEM) from representative experiments.
It is questioned whether β-cholestane-3α, 7α, 12α-triol (Triol) levels were elevated in whole liver extracts from CYP27 −/− mice. To show the level of 5β-cholestane-3α, 7α, 12α-triol in mouse liver extract, wild-type or CYP27 −/−mouse liver tissue (0.5 g) was extracted with 7.5 ml of ethyl acetate/methanol (2:1, vol/vol) along with 5β-cholestane-3β,5α,6β-triol (25 μg) as an internal control for extraction efficiency. […] The extraction was repeated three times, and the organic fraction was pooled and evaporated. To remove the vast excess of cholesterol that interferes with subsequent gas chromatography-mass spectroscopy analysis, the evaporated residue was dissolved in 0.5 ml of chloroform/acetone (35:25, vol/vol) and applied to a Bond Elut SI cartridge (Varian, 500 mg). Cholesterol was removed by washing with 6 ml of chloroform/acetone (35:25, vol/vol), and sterols were eluted with 7 ml of chloroform/acetone/methanol (35:25:20, vol/vol/vol). The sterol fraction was evaporated and dissolved in acetonitrile, and a portion was silylated with N,O-bis(trimethylsilyl)-trifluoroacetamide containing 1% trimethylchlorosilane (Pierce). The silylated material was analyzed by using a Shimadzu model GC-17A gas chromatograph with a QP5000 mass spectral detector and a Hewlett-Packard Ultra 2 (cross-linked-siloxane) column. The injector port was kept at 250° C., interface temperature was kept at 280° C., and oven temperature was kept at 50° C. followed by a gradient of 30° C. min^−1 up to 300° C. The electron impact ionization source was at 70 eV. 5β-cholestane-3α, 7α, 12α-triol levels were determined by comparison to a standard curve. For transfection studies, the sterol fraction was dissolved in DMSO and added to the cell-culture media. containing DMEM with 10% delipidated FBS.

full-length mouse PXR = target: T2, full-length mouse PXR (Mus musculus, UniProt O54915); assay: Full-length mouse PXR reporter assay with rat cyp3a regulatory element in CV-1 cells; type: cell-based; settings: 10 μM, FIG. 3(b)
T2 sequence (O54915 1-431): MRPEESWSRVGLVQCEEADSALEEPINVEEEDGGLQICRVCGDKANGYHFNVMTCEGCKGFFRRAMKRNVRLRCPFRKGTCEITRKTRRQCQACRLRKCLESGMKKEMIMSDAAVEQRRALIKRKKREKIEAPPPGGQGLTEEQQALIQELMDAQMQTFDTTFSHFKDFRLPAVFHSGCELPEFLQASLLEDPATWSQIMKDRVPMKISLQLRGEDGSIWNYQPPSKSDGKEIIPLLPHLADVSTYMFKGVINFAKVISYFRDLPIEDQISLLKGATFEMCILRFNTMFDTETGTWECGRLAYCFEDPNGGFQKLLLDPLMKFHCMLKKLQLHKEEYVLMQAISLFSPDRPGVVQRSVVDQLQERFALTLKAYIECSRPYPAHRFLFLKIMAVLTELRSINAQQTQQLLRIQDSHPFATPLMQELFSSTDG
Protocol: as §1, with “assays. PCN refers to pregnenolone-16α-carbonitrile which is an effective agonist to mouse PXR.” for “assays.”, “experiments. In some cases, the error bars are not visible because they are negligible relative to the scale of the figure” for “experiments.”
To further confirm that 5β-cholestane-3α, 7α, 12α-triol and 5β-cholestan-3α, 7α, 12α, 25-tetrol activate mouse PXR, the effect of these compounds on full-length mouse PXR was examined using a reporter construct containing a regulatory element from the rat cyp3a gene that binds to the DNA binding domain of mouse PXR. Blumberg et al., SXR, a novel steroid and xenobioticsensing nuclear receptor, Gene & Dev. 12: 3195-3205 (1998).

CYP3A4 = settings: reported by Furster & Wikvall 1999; read-out: Michaelis constant (Km) as a CYP3A4 substrate; cited from earlier work
[1] = target: T3, human PXR ligand binding domain (Homo sapiens, UniProt O75469); assay: In vitro ligand displacement assay with [3H]SR12813; settings: 37.5 nM [3H]SR12813; 5 μM hyperforin, 30 μM Triol, 30 μM Tetrol; FIG. 4
T3 sequence (O75469 107-434): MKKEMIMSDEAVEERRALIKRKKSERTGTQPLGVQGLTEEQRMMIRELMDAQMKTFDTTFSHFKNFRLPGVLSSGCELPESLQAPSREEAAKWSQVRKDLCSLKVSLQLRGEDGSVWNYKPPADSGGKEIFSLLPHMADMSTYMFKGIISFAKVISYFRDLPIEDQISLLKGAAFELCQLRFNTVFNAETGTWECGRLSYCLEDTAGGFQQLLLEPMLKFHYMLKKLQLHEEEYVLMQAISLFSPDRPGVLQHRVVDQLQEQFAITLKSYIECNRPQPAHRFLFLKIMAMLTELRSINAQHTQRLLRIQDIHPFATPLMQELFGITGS
Protocol: The amount of [^3H]SR12813 associated with human PXR is expressed in cpm.
To determine whether a molecule or compound interacts directly with a PXR or is a PXR ligand, an in vitro ligand displacement assay is commonly used. […] In the ligand displacement assay, the ligand binding domain of a PXR is synthesized or expressed and purified. A known PXR ligand is radio-labeled and incubated with the purified ligand binding domain of the PXR. A molecule or compound suspected to be a PXR ligand is then added into the incubated mixture. Radioactivity reading is taken using a scintillation counter. If the molecule or compound competes with the known PXR ligand for the ligand binding domain of the PXR, the molecule or compound is expected to displace some of the radio-labeled known PXR agonist and reduce the radioactivity reading. Accordingly, the reduction of radioactivity reading indicates whether the molecule or compound is a PXR ligand and the extent to which the molecule or compound competes with the known PXR ligand.
An in vitro ligand displacement assay was used to determine whether 5β-cholestane-3α, 7α, 12α-triol interacts directly with the ligand binding domain of PXR. Because radiolabeled [^3H]SR12813 are available for human PXR but not mouse PXR, human PXR was used to examine whether 5β-cholestane-3α, 7α, 12α-triol could compete for binding of human PXR to a tritiated SR12813. […]

CYP3A = settings: cited from earlier work
mice = assay: Tribromoethanol-induced sleep test; type: in vivo, mouse; settings: i.p. 0.35 mg/g
Text: Wild type and cyp27-null mice received an i.p. injection of tribromoethanol, and their individual sleep times are plotted. Wild type mice are represented by squares and CYP27-null mice (CYP27 −/−) are represented by circles. Wild type male, n=6; cyp27-1-male, n=5; Wild type female, n=6; cyp27-1-female, n=6. **, P<0.01; ***, P<0.001.
Because PXR is a master regulator of small-molecule clearance, continuous activation of PXR in CYP27-null mice should produce a physiologic state of enhanced resistance to endogenous and exogenous toxins. To test this in a physiological setting, mice received an i.p. injection of the anesthetic agent tribromoethanol (0.35 mg/g of body weight). Drug-induced anesthesia was measured until the animals had regained sufficient consciousness to fully right themselves. […] Thus, the tribromoethanol-induced sleep test provides a direct and quantitative measure of hepatic PXR activity in live animals. […] In female mice, the difference was even more significant: 35.8±1.6 min for CYP27-null mice compared with 49.6±2.0 min for WT (P<0.001). […] When 5β-cholestane-3α, 7α, 12α-triol itself is accumulating to pathological levels, the ability of this sterol to activate cyp3a11 (FIG. 5) becomes highly significant as CYP3A establishes an alternate or salvage pathway for the elimination of excess 5β-cholestane-3α, 7α, 12α-triol (FIG. 1). […]

SMILES: C[C@H](CCCC(C)(C)O)[C@H]1CC[C@H]2[C@@H]3[C@H](O)C[C@@H]4C[C@H](O)CC[C@]4(C)[C@H]3C[C@H](O)[C@]12C [5β-cholestane-3α, 7α, 12α, 25-tetrol]
- fold activation of GAL-mouse PXR (mouse PXR): 16 fold

SMILES: CC(C)CCC[C@@H](C)[C@H]1CC[C@H]2[C@@H]3[C@H](O)C[C@@H]4C[C@H](O)CC[C@]4(C)[C@H]3C[C@H](O)[C@]12C [5β-cholestane-3α, 7α, 12α-triol]
- EC50 (mouse PXR): ≥ 3 µM
- fold activation of GAL-mouse PXR (mouse PXR): 31 fold
- activation of full-length mouse PXR (in words) (full-length mouse PXR): activated full-length mouse PXR
- Km (CYP3A4): 6 µM

SMILES: CC(C)CCC[C@@H](C)[C@H]1CC[C@H]2[C@@H]3C[C@@H](O)[C@@]4(O)C[C@@H](O)CC[C@]4(C)[C@H]3CC[C@]12C [5β-cholestane-3β,5α,6β-triol]
- activation of GAL-mouse PXR (in words) (mouse PXR): does not activate mouse PXR

SMILES: CC(CCC[C@@H](C)[C@H]1CC[C@H]2[C@@H]3[C@H](O)C[C@@H]4C[C@H](O)CC[C@]4(C)[C@H]3C[C@H](O)[C@]12C)C(=O)O (stereo partly drawn) [5β-cholestanoic acid-3α,7α,12α-triol]
- activation of GAL-mouse PXR (in words) (mouse PXR): failed to activate mouse PXR
- displacement of [3H]SR12813 from human PXR (in words) [1]: failed to displace

SMILES: COc1cc2c(cc1O)CCN[C@]21CS[C@@H]2c3c(OC(C)=O)c(C)c4c(c3[C@H](COC1=O)N1[C@@H]2[C@H]2c3c(cc(C)c(OC)c3O)C[C@@H]([C@@H]1O)N2C)OCO4 [ET-743, Ecteinascidin-743]
- inhibition of the induction of CYP3A by SR12813 (in words) (CYP3A): completely inhibits

SMILES: C[C@H](CCC(=O)O)[C@H]1CC[C@H]2[C@@H]3[C@H](O)C[C@@H]4C[C@H](O)CC[C@]4(C)[C@H]3CC[C@]12C [chenodeoxycholic acid]
- activation of GAL-mouse PXR (in words) (mouse PXR): failed to activate mouse PXR

SMILES: OCC(Br)(Br)Br [tribromoethanol]
- time to awakening after tribromoethanol (mean±SEM) (mice; female CYP27-null mice): 35.8 ± 1.6 min
- time to awakening after tribromoethanol (mean±SEM) (mice; female WT mice): 49.6 ± 2.0 min
- time to awakening after tribromoethanol (mean±SEM) (mice; male CYP27-null mice): 30.6 ± 2.9 min
- time to awakening after tribromoethanol (mean±SEM) (mice; male WT mice): 42.2 ± 1.9 min
